Source: patent publication US9918452B2, “Method and apparatus for controlling herbivore fowl populations” (2345422 Ontario Inc., priority 2013, dated 2018)

Tested on: Canada Geese
Assay: Repellent-adulterated feed plus non-adulterated attractant feed in a recreational area
Type: in vivo
Source text: Owing to the problems encountered with both wide-scale repellent spraying and the use of repellent-treated feed on its own, a new approach to controlling the goose population at the site of Example 1 was developed. In this new approach, both repellent-adulterated feed in the form of cracked corn treated with methyl anthranilate, and non-adulterated feed (also in the form of cracked corn) was used.
In this approach to controlling the goose population at the site of Example 1, a commercially available animal feeder with a 200 lb. capacity tripod mounted hopper and SOLAR ELITE® dispensing head were obtained from On Time Wildlife Feeders (2488 Hwy 33, Ruston, La. 71270, U.S.A.). The feeder was modified as described in Example 5 to become a repellent station. The repellent reservoir was filled with an 8% solution of methyl anthranilate solution (prepared using fifty-five percent of a commercially available REJEX-IT® solution and forty-five percent water) and the flow rate from the repellent reservoir was adjusted to be approximately 0.0025 liters per second. The hopper of the repellent station was then filled with cracked corn.
In FIG. 1a a portion of the site described in Example 1 is depicted. […]

Q: How did the “acceptance of repellent-adulterated cracked corn by geese” value (8% methyl anthranilate solution sprayed on cracked corn at the repellent station, approx. 0.0025 liters per second) turn out when `COC(=O)c1ccccc1N` [methyl anthranilate] was run?
A: intolerable

Q: And the “return of geese to the grassy area where they are not desired” value (repellent station with 8% methyl anthranilate solution plus unadulterated cracked corn on paved area, length of trial (six weeks))?
A: did not return to grassy area 100
